In patent publication US20090197930A1, “Eyedrops” (priority 2006, published 2009):

Conditions: administered at high concentration

Question: Which miosis does the source give for `O=C1CN(/N=C/c2ccc(-c3ccc([N+](=O)[O-])cc3)o2)C(=O)[N-]1.[Na+]` [dantrolene, Dantrolene sodium] here?
Answer: The miosis was “strong miosis”.

Question: And the myopic inclination?
Answer: The myopic inclination was “myopic inclination is stronger”.

Question: And the pupillary reaction?
Answer: Its pupillary reaction is “pupillary reaction becomes dull”.
